Laboratory results as given in patent US20260053759A1, “MESDOPETAM COMPOSITIONS” (ALKEM LABORATORIES LIMITED, priority 2022, published 2026).

Experiments:
[1] = main metabolites in man, present in plasma and urine; cited from earlier work
rat stomachs = experiment: Gastric emptying in the rat model (phenol red method); format: in vivo, Male Wistar rats; conditions: mean ± SEM
Experimental: This study aimed to investigate the prokinetic effects of Mesdopetam, a dopamine receptor antagonist, on rat stomachs by assessing gastric emptying at three different doses: 1.24 mg/kg, 2.48 mg/kg, and 3.72 mg/kg. Male Wistar rats were used as the animal model. Gastric emptying time was measured at specific time intervals post-administration, and the results were compared to determine the impact of Mesdopetam on gastric motility.
• Animal Model: Male Wistar rats (250-300 g) were used for the study. • Drug Administration: Mesdopetam was administered orally to rats at three different doses: 1.24 mg/kg, 2.48 mg/kg, and 3.72 mg/kg. The control group received a placebo. • Experimental Groups: Rats were divided into four groups: control (receiving placebo) and three treatment groups (receiving Mesdopetam at the respective doses). • Measurement of Gastric Emptying: Gastric emptying time was measured using a non-invasive method, such as the phenol red method. Rats were fasted overnight before the experiment, and the drug was administered following the fasting period. • Data Collection: Gastric emptying time was recorded at specific time points post-treatment: 1 hour, 2 hours, 4 hours, and 8 hours. • Statistical Analysis: The data were analyzed using appropriate statistical tests (e.g., one-way ANOVA followed by post hoc tests) to determine significant differences in gastric emptying time between the control and treatment groups at each dose level.
The results of the study are presented as mean gastric emptying time (in minutes) for each group at different time points post-treatment: […]

[2] = target: dopamine D3 receptor (D3R) (Homo sapiens, UniProt P35462); conditions: antagonist; cited from earlier work
Sequence of dopamine D3 receptor (D3R) (P35462 whole entry): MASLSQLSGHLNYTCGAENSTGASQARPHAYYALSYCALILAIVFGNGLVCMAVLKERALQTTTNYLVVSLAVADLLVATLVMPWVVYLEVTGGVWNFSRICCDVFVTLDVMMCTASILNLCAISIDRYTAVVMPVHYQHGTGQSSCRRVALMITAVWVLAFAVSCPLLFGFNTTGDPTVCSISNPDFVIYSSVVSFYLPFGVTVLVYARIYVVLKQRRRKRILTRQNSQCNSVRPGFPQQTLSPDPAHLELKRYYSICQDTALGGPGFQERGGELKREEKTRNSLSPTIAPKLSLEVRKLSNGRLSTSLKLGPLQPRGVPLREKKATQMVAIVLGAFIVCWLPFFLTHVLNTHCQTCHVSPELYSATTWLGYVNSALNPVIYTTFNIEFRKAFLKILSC

[3] = cited from earlier work

CS(=O)(=O)c1cc(F)cc(OCCN)c1 [M1]
pharmacological activity of metabolite [1]: pharmacologically inactive

CC(=O)NCCOc1cc(F)cc(S(C)(=O)=O)c1 [M2]
pharmacological activity of metabolite [1]: pharmacologically inactive

CCCNCCOc1cc(F)cc(S(C)(=O)=O)c1 [Mesdopetam, [2-(3-fluoro-5-methylsulfonylphenoxy)ethyl]propan-1-amine]
mean gastric emptying time (rat stomachs; 1.24 mg/kg oral, 1 hour post-treatment): 38.5 ± 1.8 min | mean gastric emptying time (rat stomachs; 1.24 mg/kg oral, 2 hours post-treatment): 32.4 ± 1.5 min | mean gastric emptying time (rat stomachs; 1.24 mg/kg oral, 4 hours post-treatment): 27.9 ± 1.3 min | mean gastric emptying time (rat stomachs; 1.24 mg/kg oral, 8 hours post-treatment): 24.6 ± 1.1 min | mean gastric emptying time (rat stomachs; 2.48 mg/kg oral, 1 hour post-treatment): 32.1 ± 1.6 min | mean gastric emptying time (rat stomachs; 2.48 mg/kg oral, 2 hours post-treatment): 26.9 ± 1.4 min | mean gastric emptying time (rat stomachs; 2.48 mg/kg oral, 4 hours post-treatment): 23.4 ± 1.2 min | mean gastric emptying time (rat stomachs; 2.48 mg/kg oral, 8 hours post-treatment): 19.8 ± 1.0 min | mean gastric emptying time (rat stomachs; 3.72 mg/kg oral, 1 hour post-treatment): 29.6 ± 1.4 min | mean gastric emptying time (rat stomachs; 3.72 mg/kg oral, 2 hours post-treatment): 23.8 ± 1.2 min | mean gastric emptying time (rat stomachs; 3.72 mg/kg oral, 4 hours post-treatment): 20.3 ± 1.0 min | mean gastric emptying time (rat stomachs; 3.72 mg/kg oral, 8 hours post-treatment): 17.5 ± 0.9 min | Ki [2]: ~90 nM

CCN(CC)CCNC(=O)c1cc(Cl)c(N)cc1OC [metoclopramide]
incidence of extrapyramidal reactions ([3]; aged and young patients): ≤ 25% | reported incidence of extrapyramidal reactions ([3]; overall): 0.2%
